Key:
5-HT4 Receptor = biological target: T1, 5-HT4 Receptor (Cavia porcellus, UniProt O70528); test: 5-HT4 Receptor Binding, Guinea Pig Striatum, [3H]GR113808; details: versus ATI-7500
T1 construct: Guinea Pig Striatum; from tissue; host or cells: guinea pig striatum

[1] = system: isolated, perfused guinea pig hearts
fasted, conscious dogs = test: gastric, small intestinal and colonic motor activity in fasted, conscious dogs; details: for prokinetic effects in the dog gut: IV and PO; for effect on migrating motor complex (MMC) characteristics: antrum, proximal, mid and distal small intestine
fed dogs = test: gastric emptying in fed conscious dogs (time of MMC return); type: in vivo, dog; details: IV infusion over 20 minutes before a solid meal; FIG. 2
[2] = metabolism by esterases in human plasma
human 5-HT4 receptor = biological target: T2, human 5-HT4 receptor (Homo sapiens, UniProt Q13639); test: adenylyl cyclase stimulation in cells stably expressing human 5-HT4 receptor; type: cell-based; details: negative logarithm of the EC50
T2 construct: expressed in transfected cells
T2 sequence (Q13639 whole entry): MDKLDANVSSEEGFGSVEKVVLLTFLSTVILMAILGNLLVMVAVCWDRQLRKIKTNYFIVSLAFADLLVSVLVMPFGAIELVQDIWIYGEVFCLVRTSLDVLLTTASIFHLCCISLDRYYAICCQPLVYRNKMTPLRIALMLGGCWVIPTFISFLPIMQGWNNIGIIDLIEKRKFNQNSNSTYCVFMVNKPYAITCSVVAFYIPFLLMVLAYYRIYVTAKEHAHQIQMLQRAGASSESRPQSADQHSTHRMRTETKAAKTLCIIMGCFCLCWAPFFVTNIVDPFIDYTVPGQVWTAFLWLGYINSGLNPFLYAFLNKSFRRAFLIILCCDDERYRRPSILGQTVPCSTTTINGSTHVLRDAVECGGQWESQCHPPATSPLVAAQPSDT

CYP450 2D6 = CYP450 2D6 (Homo sapiens, UniProt P10635); details: recombinant enzyme
Sequence of CYP450 2D6 (P10635 whole entry): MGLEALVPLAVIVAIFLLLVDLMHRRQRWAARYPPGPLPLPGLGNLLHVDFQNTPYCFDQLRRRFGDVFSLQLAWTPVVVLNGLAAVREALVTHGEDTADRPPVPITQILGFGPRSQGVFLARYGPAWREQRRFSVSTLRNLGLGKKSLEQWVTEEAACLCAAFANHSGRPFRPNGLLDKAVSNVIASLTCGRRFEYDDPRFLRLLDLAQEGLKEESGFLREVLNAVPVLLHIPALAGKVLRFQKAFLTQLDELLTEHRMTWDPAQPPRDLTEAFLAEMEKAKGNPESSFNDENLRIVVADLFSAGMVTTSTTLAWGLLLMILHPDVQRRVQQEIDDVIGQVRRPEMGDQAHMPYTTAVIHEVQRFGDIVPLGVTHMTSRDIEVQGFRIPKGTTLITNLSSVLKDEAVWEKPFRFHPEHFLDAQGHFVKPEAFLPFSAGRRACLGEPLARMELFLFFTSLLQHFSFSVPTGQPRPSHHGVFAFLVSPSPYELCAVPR

T1 sequence (O70528 whole entry): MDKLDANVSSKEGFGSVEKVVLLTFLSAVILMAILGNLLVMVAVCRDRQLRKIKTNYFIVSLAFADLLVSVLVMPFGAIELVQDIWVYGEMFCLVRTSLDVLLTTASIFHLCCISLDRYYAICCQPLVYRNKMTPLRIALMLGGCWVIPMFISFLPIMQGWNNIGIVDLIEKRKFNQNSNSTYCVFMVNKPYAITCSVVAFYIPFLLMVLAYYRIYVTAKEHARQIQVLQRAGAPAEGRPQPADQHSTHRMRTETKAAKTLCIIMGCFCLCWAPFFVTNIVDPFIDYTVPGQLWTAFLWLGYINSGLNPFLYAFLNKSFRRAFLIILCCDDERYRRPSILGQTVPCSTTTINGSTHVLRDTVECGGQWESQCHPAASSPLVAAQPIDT

SMILES | affinity for the 5-HT4 receptor, fold greater than ATI-7500 (5-HT4 Receptor) | modulation of cardiac electrophysiologic parameters [1] | prokinetic effects in the dog gut (fasted, conscious dogs) | side effects such as diarrhea, anorexia, or weight loss (fasted, conscious dogs; IV and PO doses, dogs) | MMC frequency in the proximal small intestine relative to controls (fasted, conscious dogs; PO) | effect on migrating motor complex (MMC) characteristics (fasted, conscious dogs) | antral and small bowel contractility (fasted, conscious dogs; fasted dogs) | colonic motor activity (fasted, conscious dogs; fasted dogs) | development of retrograde giant migrating contractions (fasted, conscious dogs; fasted dogs) | time of MMC return (index of gastric emptying) (fed dogs) | metabolism by esterases in human plasma [2] | Potency pEC50 (human 5-HT4 receptor) | inhibitory activity against CYP450 2D6 (CYP450 2D6)
COc1cc(N)c(Cl)cc1C(=O)N[C@@H]1CCN(CCCCCC(=O)O[C@H]2CN3CCC2CC3)C[C@@H]1OC [ATI-7505, 6-[4R-(4-amino-5-chloro-2-methoxy-benzoylamino)-3S-methoxy-piperidin-1-yl]-hexanoic acid 1-aza-bicyclo[2.2.2]oct-3′R-yl ester] | at least 360 fold | very weak modulator of cardiac electrophysiologic parameters | caused prokinetic effects | exhibited no side effects | increased MMC frequency | minimal effect | dose-dependent stimulation of antral and small bowel contractility | relatively little effect on colonic motor activity | not associated with the development of retrograde giant migrating contractions | significantly shortened the time of MMC return | rapidly metabolized by esterases in human plasma | 8.45 | –
COc1cc(N)c(Cl)cc1C(=O)NC1CCN(CCCOc2ccc(F)cc2)CC1OC (stereo not drawn) [Cisapride, reference compound] | – | – | caused prokinetic effects | – | – | minimal effect | dose-dependent stimulation of antral and small bowel contractility | relatively little effect on colonic motor activity | – | – | – | – | significant inhibitory activity
COc1cc(N)c(Cl)cc1C(=O)N[C@@H]1CCN(CCCCCC(=O)O)C[C@@H]1OC [ATI-7500, 6-((3S,4R)-4-(4-amino-5-chloro-2-methoxybenzamido)-3-methoxypiperidin-1-yl)hexanoic acid] | – | – | – | – | – | – | – | – | – | – | – | 6.40 | –
